Laboratory results: patent publication US8741897B2, “Glucocorticoid mimetics, methods of making them, pharmaceutical compositions and uses thereof” (Boehringer Ingelheim Pharmaceuticals Inc., priority 2003, dated 2014)

Tested on: glucocorticoid receptor function
Assay: one or more of the above assays (GR binding and glucocorticoid receptor cell assays: aromatase, IL-6, TAT, MMTV-Luc, IL-8, ICAM-Luc)
Type: cell-based
Details: assay not specified per compound

SMILES | activity as agonists of the glucocorticoid receptor function in one or more of the above assays
CCN(CC)c1cc2cc(CC(O)(CC(C)(C)c3cc(F)ccc3C)C(F)(F)F)[nH]c2cn1 (stereo not shown) [2-(5-Diethylamino-1H-pyrrolo[2,3-c]pyridin-2-ylmethyl)-1,1,1-trifluoro-4-(5-fluoro-2-methylphenyl)-4-methylpentan-2-ol] | potent agonists
CC(C)(CC(O)(Cc1cc2cc(-c3ccccc3)nnc2[nH]1)C(F)(F)F)c1cccc(F)c1 (stereo not shown) [1,1,1-Trifluoro-4-(3-fluorophenyl)-4-methyl-2-(3-phenyl-7H-pyrrolo[2,3-c]pyridazin-6-ylmethyl)pentan-2-ol] | potent agonists
COc1ccc(-c2cccnc2)cc1C(C)(C)CC(O)(Cc1cc2c(C)cncc2[nH]1)C(F)(F)F (stereo not shown) [1,1,1-Trifluoro-4-(2-methoxy-5-pyridin-3-ylphenyl)-4-methyl-2-(4-methyl-1H-pyrrolo[2,3-c]pyridin-2-ylmethyl)pentan-2-ol] | potent agonists
CC(C)(CC(O)(Cc1cc2cnccc2[nH]1)C(F)(F)F)c1cc(-c2cccnc2)ccc1O (stereo not shown) [4-Pyridin-3-yl-2-[4,4,4-trifluoro-3-hydroxy-1,1-dimethyl-3-(1H-pyrrolo[3,2-c]pyridin-2-ylmethyl)butyl]phenol] | potent agonists
Cc1ccc(F)cc1C(C)(C)CC(O)(Cc1cc2ccncc2[nH]1)C(C)C (stereo not shown) [5-(5-Fluoro-2-methylphenyl)-2,5-dimethyl-3-(1H-pyrrolo[2,3-c]pyridin-2-ylmethyl)hexan-3-ol] | agonists
Cc1nccc2[nH]c(CC(O)(CC(C)(C)c3cc(-c4ccccc4)ccc3O)C(F)(F)F)cc12 (stereo not shown) [3-[4,4,4-Trifluoro-3-hydroxy-1,1-dimethyl-3-(4-methyl-1H-pyrrolo[3,2-c]pyridin-2-ylmethyl)butyl]biphenyl-4-ol] | potent agonists
CSc1cc2c(c(C(C)(C)CC(O)(Cn3ccc4ncccc43)C(F)(F)F)c1)OCC2 (stereo not shown) [1,1,1-Trifluoro-4-methyl-4-(5-methylsulfanyl-2,3-dihydrobenzofuran-7-yl)-2-pyrrolo[3,2-b]pyridin-1-ylmethylpentan-2-ol] | potent agonists
CC(C)(CC(O)(Cc1cc2cnccc2[nH]1)C(F)(F)F)c1cc(S(C)(=O)=O)cc2c1OCC2 (stereo not shown) [1,1,1-Trifluoro4-(5-methanesulfonyl-2,3-dihydrobenzofuran-7-yl)-4-methyl-2-(1H-pyrrolo[3,2-c]pyridin-2-ylmethyl)pentan-2-ol] | potent agonists
CC(C)c1ncc2[nH]c(CC(O)(CC(C)(C)c3cc(Cl)cc4c3OCC4)C(F)(F)F)cc2n1 (stereo not shown) [4-(5-Chloro-2,3-dihydrobenzofuran-7-yl)-1,1,1-trifluoro-2-(2-isopropyl-5H-pyrrolo[3,2-d]pyrimidin-6-ylmethyl)-4-methylpentan-2-ol] | potent agonists
COc1ccc(Br)cc1C(C)(C)CC(O)(Cc1cc2cc(Cl)ncc2[nH]1)C(F)(F)F (stereo not shown) [4-(5-Bromo-2-methoxyphenyl)-2-(5-chloro-1H-pyrrolo[2,3-c]pyridin-2-ylmethyl)-1,1,1-trifluoro-4-methylpentan-2-ol] | potent agonists
Cc1c(CC(O)(CC(C)(C)c2cc(Cl)cc3c2OCC3)C(C)C)[nH]c2cnccc12 (stereo not shown) [5-(5-Chloro-2,3-dihydrobenzofuran-7-yl)-2,5-dimethyl-3-(3-methyl-1H-pyrrolo[2,3-c]pyridin-2-ylmethyl)hexan-3-ol] | agonists
Cc1ccc(F)cc1C(C)(C)CC(O)(Cc1cc2nnccc2[nH]1)C(F)(F)F (stereo not shown) [1,1,1-Trifluoro-4-(5-fluoro-2-methylphenyl)4-methyl-2-(5H-pyrrolo[3,2-c]pyridazin-6-ylmethyl)pentan-2-ol] | potent agonists
COc1ccc(-c2cccc(C#N)c2)cc1C(C)(C)CC(O)(Cc1cc2ccncc2[nH]1)C(F)(F)F (stereo not shown) [4′-Methoxy-3′-[4,4,4-trifluoro-3-hydroxy-1,1-dimethyl-3-(1H-pyrrolo[2,3-c]pyridin-2-ylmethyl)butyl]biphenyl-3-carbonitrile] | potent agonists
CC(C)(CC(O)(Cn1ccc2c1CCCC2=O)C(F)(F)F)c1cc(-c2cccnc2)ccc1O (stereo not shown) [1-[2-Hydroxy-4-(2-hydroxy-5-pyridin-3-ylphenyl)-4-methyl-2-trifluoromethylpentyl]-1,5,6,7-tetrahydroindol-4-one] | agonists
Cc1c(CC(O)(CC(C)(C)c2cccc(F)c2)C(F)(F)F)[nH]c2cnccc12 (stereo not shown) [1,1,1-Trifluoro-4-(3-fluorophenyl)-4-methyl-2-(3-methyl-1H-pyrrolo[2,3-c]pyridin-2-ylmethyl)pentan-2-ol] | potent agonists
COc1ccc(F)cc1C(C)(C)CC(O)(Cc1cc2cc(N3CCOCC3)ncc2[nH]1)C(F)(F)F (stereo not shown) [1,1,1-Trifluoro-4-(5-fluoro-2-methoxyphenyl)-4-methyl-2-(5-morpholin-4-yl-1H-pyrrolo[2,3-c]pyridin-2-ylmethyl)pentan-2-ol] | potent agonists
COc1ccc(F)cc1C(C)(C)CC(O)(Cc1cc2ccncc2[nH]1)C1(F)CC1 (stereo not shown) [2-(1-Fluorocyclopropyl)-4-(5-fluoro-2-methoxyphenyl)-4-methyl-1-(1H-pyrrolo[2,3-c]pyridin-2-yl)pentan-2-ol] | agonists
COc1ccc(-c2ccsc2)cc1C(C)(C)CC(O)(Cc1cc2c(C)nccc2[nH]1)C(F)(F)F (stereo not shown) [1,1,1-Trifluoro-4-(2-methoxy-5-thiophen-3-ylphenyl)-4-methyl-2-(4-methyl-1H-pyrrolo[3,2-c]pyridin-2-ylmethyl)pentan-2-ol] | potent agonists
COc1ccc(F)cc1C(C)(C)CC(O)(Cc1cc2ccncc2[nH]1)C(C)C (stereo not shown) [5-(5-Fluoro-2-methoxyphenyl)-2,5-dimethyl-3-(1H-pyrrolo[2,3-c]pyridin-2-ylmethyl)hexan-3-ol] | agonists
COc1ccc(-c2cccnc2)cc1C(C)(C)CC(O)(Cn1ccc2c1CCCC2=O)C(F)(F)F (stereo not shown) [1-[2-Hydroxy-4-(2-methoxy-5-pyridin-3-ylphenyl)-4-methyl-2-trifluoromethylpentyl]-1,5,6,7-tetrahydroindol-4-one] | agonists
CC(CO)(CC(O)(Cc1ccnc2ccccc12)C(F)(F)F)c1ccccc1 (stereo not shown) [5,5,5-Trifluoro-2-methyl-2-phenyl-4-quinolin-4-ylmethylpentane-1,4-diol] | agonists
COc1ccc(-c2ccccc2C#N)cc1C(C)(C)CC(O)(Cc1cc2c(C)cncc2[nH]1)C(F)(F)F (stereo not shown) [4′-Methoxy-3′-[4,4,4-trifluoro-3-hydroxy-1,1-dimethyl-3-(4-methyl-1H-pyrrolo[2,3-c]pyridin-2-ylmethyl)butyl]biphenyl-2-carbonitrile] | potent agonists
